Laboratory results published in EP4700025A1, “AMIDE COMPOUND, PHARMACEUTICAL COMPOSITION COMPRISING SAME, AND USE THEREOF” (Suzhou Genhouse Bio Co., Ltd., priority 2023, dated 2024).
pEC50, pIC50: −log10 of the molar value. Like-named read-outs stand apart in the source and are kept apart here.

Tests used:
HCT-116 = experiment: CCK8 proliferation inhibition, HCT-116; type: cell-based; conditions: Homo sapiens, 192 h, CCK8, 8 days after drug treatment
SDMA [1] = experiment: SDMA Inhibition Assay in HCT-116 cells; type: cell-based; conditions: Homo sapiens, HCT-116, 96 hours
SDMA [2] = experiment: SDMA Inhibition Assay in HCT-116-MTAP^-/- cells; type: cell-based; conditions: Homo sapiens, 96 hours
SDMA [3] = experiment: SDMA Inhibition Assay in A549 cells; type: cell-based; conditions: Homo sapiens, A549, 96 hours
[4] = Pharmacokinetic assay in mice; type: in vivo, Balb/c mice; conditions: mouse; for F: PO 10mpk vs IV 2mpk; for AUC(0-inf) / AUC(0-t) / C0 / MRT inf / Vd / Cmax / Tmax: plasma; for MRT inf: read-out: MRT(0-∞); for Vd: read-out: Vz
Procedure, shortened: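 Male Balb/c mice (6–8 weeks) were dosed 2 mg/kg IV by tail vein or 10 or 100 mg/kg by oral gavage, with the PO group fasted overnight. Orbital blood was taken from 0.083 (IV only) to 24 h for plasma. Cmax, Tmax, CL, Vss, AUC, t1/2 and bioavailability were derived from concentration–time data.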

[5] = Pharmacokinetic assay in rats; type: in vivo, SD rats; conditions: rat; for AUC(0-inf) / AUC(0-t) / C0 / MRT inf / Vd / Cmax / Tmax: plasma; for MRT inf: read-out: MRT(0-∞); for Vd: read-out: Vz
Protocol: In this experimental example, the pharmacokinetic behavior of the test compounds after administration by intravenous injection (IV) and oral gavage (PO) in SD rats was tested.
On the day of administration, rats were weighed for actual body weight, and the administration volume was calculated. Each compound was tested in two groups with 3 rats in each group; one group was subjected to administration by single intravenous injection, and the other group was subjected to administration by single oral gavage. The whole blood samples were collected via the jugular vein at prescribed time points (0.25 h, 0.5 h, 1 h, 2 h, 4 h, 8 h, and 24 h after administration). After the blood sample collection, the samples were immediately transferred to labeled commercial sample tubes containing K2-EDTA (0.85-1.15 mg), followed by centrifugation (3200× g, 4 °C, 10 min) and plasma collection. The plasma was transferred to a pre-cooled centrifuge tube, frozen in dry ice, and then stored in an ultra-low temperature freezer at -60 °C or lower until the LC-MS/MS analysis was performed.
Plasma concentrations were determined by the LC-MS/MS method. Plasma drug concentration data for the compounds were processed using a non-compartmental model in the WinNonlin Version 6.3 (Pharsight, Mountain View, CA) pharmacokinetic software. The relevant pharmacokinetic parameters were calculated by a linear-log trapezoidal method.

CYP450 3A4 = target: T1, CYP450 3A4 (Homo sapiens, UniProt P08684); experiment: Inhibition of human liver microsome CYP450 enzyme 3A4; type: in vitro ADME
T1 construct: from tissue; host or cells: human liver microsomes
T1 sequence (P08684 whole entry): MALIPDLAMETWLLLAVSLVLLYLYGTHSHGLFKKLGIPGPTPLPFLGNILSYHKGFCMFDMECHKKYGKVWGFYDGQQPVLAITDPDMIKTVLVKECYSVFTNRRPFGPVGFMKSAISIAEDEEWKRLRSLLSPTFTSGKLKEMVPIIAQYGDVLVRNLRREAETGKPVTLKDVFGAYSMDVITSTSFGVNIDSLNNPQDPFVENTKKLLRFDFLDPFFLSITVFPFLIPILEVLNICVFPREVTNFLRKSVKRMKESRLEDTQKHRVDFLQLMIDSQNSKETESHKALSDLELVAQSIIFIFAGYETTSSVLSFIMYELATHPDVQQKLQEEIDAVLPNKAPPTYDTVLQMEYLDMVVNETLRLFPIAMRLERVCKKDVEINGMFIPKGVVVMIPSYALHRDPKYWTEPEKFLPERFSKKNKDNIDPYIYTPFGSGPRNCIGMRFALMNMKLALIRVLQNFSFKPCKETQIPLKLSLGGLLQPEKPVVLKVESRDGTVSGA
Protocol: 100 mM K-Buffer: 9.5 mL of stock solution A was mixed with 40.5 mL of stock solution B, the total volume was adjusted to 500 mL with ultrapure water, and the buffer was titrated to pH 7.4 with KOH or H3PO4. • Starting material A (1 M potassium dihydrogen phosphate): 136.5 g of potassium dihydrogen phosphate in 1 L of water; • Stock solution B ([…]): 174.2 g of potassium dihydrogen phosphate in 1 L of water.
The test substance powder was prepared into a stock solution at a certain concentration with DMSO or another organic solvent, which was then further diluted with a suitable organic solvent.
The liver microsomal in vitro incubation system for the CYP450 enzyme metabolism phenotype study was a biochemical reaction of the prepared liver microsomes supplemented with a redox coenzyme and an enzyme-specific selective inhibitor under simulated physiological temperature and physiological environment conditions.
The concentration of the parent drug or a metabolite thereof in the incubation solution was determined by LC-MS/MS. and the IC50 value was calculated.

[6] = PO 10mpk (IV reference 2mpk; 0.2mpk for I-7)
[7] = male, Balb/c, 10 mg/kg, PO 10mpk

SMILES: Cn1ncc2c(N)nc3cc(F)c(C(=O)N4CCOC[C@@H]4c4ccc5c(c4)OC(F)(F)O5)cc3c21 [Example I-7]
- pEC50 (HCT-116): 5.94
- pEC50 (SDMA [1]): 6.74
- pEC50 (SDMA [2]): 8.70
- pEC50 (SDMA [3]): 8.92
- CLz ([4]; IV 2mpk): 13 mL/min/kg
- R_AUC(t/∞) ([4]; IV 2mpk): 95.1%
- t1/2z ([4]; IV 2mpk): 1.9 h
- R_AUC(t/∞) ([4]; PO 10mpk): 97.1%
- t1/2z ([4]; PO 10mpk): 4.9 h
- F [4]: 159.9%
- AUC(0-inf) ([4]; 2 mg/kg, IV 2mpk): 4.89 µM·h
- AUC(0-t) ([4]; 2 mg/kg, IV 2mpk): 4.65 µM·h
- C0 ([4]; 2 mg/kg, IV 2mpk): 2620 nM
- MRT inf ([4]; 2 mg/kg, IV 2mpk): 2.7 h
- Vd ([4]; 2 mg/kg, IV 2mpk): 2.3 L/kg
- AUC(0-inf) ([4]; 10 mg/kg, PO 10mpk): 39.1 µM·h
- AUC(0-t) ([4]; 10 mg/kg, PO 10mpk): 38 µM·h
- Cmax ([4]; 10 mg/kg, PO 10mpk): 5010 nM
- Tmax ([4]; 10 mg/kg, PO 10mpk): 2 h
- MRT inf ([4]; 10 mg/kg, PO 10mpk): 6.1 h
- AUC(0-inf) ([5]; 0.2 mg/kg, IV 0.2mpk): 0.22 µM·h
- AUC(0-t) ([5]; 0.2 mg/kg, IV 0.2mpk): 0.148 µM·h
- C0 ([5]; 0.2 mg/kg, IV 0.2mpk): 176 nM
- MRT inf ([5]; 0.2 mg/kg, IV 0.2mpk): 1.8 h
- Vd ([5]; 0.2 mg/kg, IV 0.2mpk): 3.5 L/kg
- AUC(0-inf) ([5]; 10 mg/kg, PO 10mpk): 9.6 µM·h
- AUC(0-t) ([5]; 10 mg/kg, PO 10mpk): 6.58 µM·h
- Cmax ([5]; 10 mg/kg, PO 10mpk): 781 nM
- Tmax ([5]; 10 mg/kg, PO 10mpk): 4.3 h
- MRT inf ([5]; 10 mg/kg, PO 10mpk): 9.9 h
- CLz ([5]; IV 0.2mpk): 31.7 mL/min/kg
- R_AUC(t/∞) ([5]; IV 0.2mpk): 67%
- t1/2z ([5]; IV 0.2mpk): 1.3 h
- R_AUC(t/∞) ([5]; PO 10mpk): 76.9%
- t1/2z ([5]; PO 10mpk): 8.1 h
- F [5, 6]: 89.1%
- pIC50 (CYP450 3A4; human, microsomes, pH 7.4): < 5.00

SMILES: Cn1ncc2c(N)nc3cc(F)c(C(=O)N(Cc4ccc5c(c4)OC(F)(F)O5)C4CC4)cc3c21 [Example I-16]
- pEC50 (HCT-116): 6.03
- pEC50 (SDMA [1]): 6.70
- pEC50 (SDMA [2]): 8.92
- pEC50 (SDMA [3]): 9.10
- AUC(0-inf) ([4]; male, Balb/c, 2 mg/kg, IV 2mpk): 6.37 µM·h
- AUC(0-t) ([4]; male, Balb/c, 2 mg/kg, IV 2mpk): 6.24 µM·h
- C0 ([4]; male, Balb/c, 2 mg/kg, IV 2mpk): 1960 nM
- MRT inf ([4]; male, Balb/c, 2 mg/kg, IV 2mpk): 4.9 h
- Vd ([4]; male, Balb/c, 2 mg/kg, IV 2mpk): 4.3 L/kg
- AUC(0-inf) [4, 7]: 34.5 µM·h
- AUC(0-t) [4, 7]: 34.4 µM·h
- Cmax [4, 7]: 4760 nM
- Tmax [4, 7]: 1 h
- MRT inf [4, 7]: 5.2 h
- CLz ([4]; IV 2mpk): 12 mL/min/kg
- R_AUC(t/∞) ([4]; IV 2mpk): 97.9%
- t1/2z ([4]; IV 2mpk): 4.4 h
- R_AUC(t/∞) ([4]; PO 10mpk): 99.6%
- t1/2z ([4]; PO 10mpk): 3.1 h
- F [4]: 108%
- AUC(0-inf) ([5]; SD, 2 mg/kg, IV 2mpk): 2.43 µM·h
- AUC(0-t) ([5]; SD, 2 mg/kg, IV 2mpk): 2.15 µM·h
- C0 ([5]; SD, 2 mg/kg, IV 2mpk): 1140 nM
- MRT inf ([5]; SD, 2 mg/kg, IV 2mpk): 3.1 h
- Vd ([5]; SD, 2 mg/kg, IV 2mpk): 5.6 L/kg
- AUC(0-inf) ([5]; SD, 10 mg/kg, PO 10mpk): 13.2 µM·h
- AUC(0-t) ([5]; SD, 10 mg/kg, PO 10mpk): 9.06 µM·h
- Cmax ([5]; SD, 10 mg/kg, PO 10mpk): 808 nM
- Tmax ([5]; SD, 10 mg/kg, PO 10mpk): 4.7 h
- MRT inf ([5]; SD, 10 mg/kg, PO 10mpk): 13.2 h
- CLz ([5]; IV 2mpk): 31.7 mL/min/kg
- R_AUC(t/∞) ([5]; IV 2mpk): 88.8%
- t1/2z ([5]; IV 2mpk): 2.3 h
- R_AUC(t/∞) ([5]; PO 10mpk): 71.5%
- t1/2z ([5]; PO 10mpk): 9.3 h
- F [5, 6]: 84%
- pIC50 (CYP450 3A4; human liver microsomes, 3A4, read-out: IC50): < 5.00

SMILES: Cn1ncc2c(N)nc3cnc(C(=O)N4CCOC[C@@H]4c4ccc5c(c4)OC(F)(F)O5)cc3c21 [Example I-38]
- pEC50 (HCT-116): 6.50
- pEC50 (SDMA [1]): 6.83
- pEC50 (SDMA [2]): 8.82
- pEC50 (SDMA [3]): 8.77
- AUC(0-t) ([4]; 2 mg/kg, IV 2mpk): 7.87 µM·h
- AUC(0-t) ([4]; 100 mg/kg, PO 100mpk): 710 µM·h
- Cmax ([4]; 100 mg/kg, PO 100mpk): 52100 nM
- AUC(0-t) ([5]; 2 mg/kg, IV 2mpk): 4 µM·h
- AUC(0-t) ([5]; 100 mg/kg, PO 100mpk): 199 µM·h
- Cmax ([5]; 100 mg/kg, PO 100mpk): 10200 nM
- F ([5]; PO 100mpk vs IV 2 mpk): 99%
- pIC50 (CYP450 3A4; human, microsomes, pH 7.4): < 5.00
